The values below are quoted from earlier work in patent US20230413813A1, “ANTIMICROBIAL COMPOSITION COMPRISING A POLYIMIDE” (The Procter & Gamble Company, priority 2022, published 2023).

As to `CC(=O)O.CC(=O)O.NC(=N\CCCCCC/N=C(N)/N=C(\N)Nc1ccc(Cl)cc1)/N=C(\N)Nc1ccc(Cl)cc1` [Chlorhexidine diaceate, Chlorhexidine diacetate], the solubility in water is given as roughly 1%.
